In PubChem BioAssay (NCI):
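Test compounds were applied to cells in 96-well plates for 48 hours at 5 doses. The concentration for full growth arrest is given as TGI.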

Experiments:
Assay in all cases: inhibition of tumour cell growth, NCI panel, 48 h
MOLT-4 leukemia = system: MOLT-4 leukemia
CCRF-CEM leukemia = system: CCRF-CEM leukemia
HOP-92 NSCLC = system: HOP-92 NSCLC
T-47D breast = system: T-47D breast
SF-539 CNS = system: SF-539 CNS
MDA-N = system: MDA-N
K-562 leukemia = system: K-562 leukemia
HOP-62 NSCLC = system: HOP-62 NSCLC
HCT-15 colon = system: HCT-15 colon
MDA-MB-435 = system: MDA-MB-435
NCI-H460 lung = system: NCI-H460 lung

Compound	TGI (MOLT-4 leukemia) [µM]	TGI (CCRF-CEM leukemia) [µM]	TGI (HOP-92 NSCLC) [µM]	TGI (T-47D breast) [µM]	TGI (SF-539 CNS) [µM]	TGI (MDA-N) [µM]	TGI (K-562 leukemia) [µM]	TGI (HOP-62 NSCLC) [µM]	TGI (HCT-15 colon) [µM]	TGI (MDA-MB-435) [µM]	TGI (NCI-H460 lung) [µM]
CC1(C)OCC(C2OC(C)(C)OC2[C@H]2O[C@@]3(O)[C@H]4[C@H](C=CC[C@@H]42)[C@@H](OCc2ccccc2)[C@H](OCc2ccccc2)[C@H]3OCc2ccccc2)O1 (stereo partly specified)	44.3	> 100	> 100	> 100	> 100	44.8	> 100	> 100	> 100	> 100	> 100
CCOC(=O)/C=C/CCC(C)(C)COC(C)=O	> 10	> 10	> 10	> 10	> 10	> 10	> 10	> 10	> 10	> 10	> 10
CCc1nc2c(c(N(C)C)c1C(=O)OC)CCc1ccccc1-2	23	9.43	> 100	58.1	> 100	81.5	77.3	63.5	> 100	65.6	> 100
NC(=O)c1ccc[n+](C2=C([O-])c3ccccc3C(=O)/C2=N\S(=O)(=O)c2ccccc2)c1	81.5	> 100	26.5	53.6	32.2	31	> 100	33	95.9	17.2	47.9
COc1ccc(-c2cc3cc(Cl)cc(Cl)c3oc2=O)cc1OC	> 100	> 100	> 100	> 100	> 100	> 100	> 100	> 100	> 100	> 100	> 100
CCOC(=O)[C@@H](Cc1ccc(CCl)cc1)NC(C)=O	> 100	> 100	43.6	93.7	36.4	40.2	> 100	75.1	94.1	48.7	43.2
CCOC(=O)c1csc(NC(=O)CCN2CCCC2)n1	> 100	> 100	> 100	> 100	> 100	> 100	> 100	> 100	> 100	> 100	> 100
CC(C)=CCC[C@@H](C)C1=C(Nc2ccccc2F)C(O)=C(C)C(=O)C1=O	> 67.8	3.9	> 69.9	64.1	59.8	> 100	> 100	> 72.1	> 70.6	> 100	> 100
O=C1c2cc3c(cc2CC12Cc1ccc4c(c1C2=O)CCC4)CCC3 (stereo unspecified)	> 100	> 100	> 100	> 100	> 100	> 100	> 100	> 100	> 100	> 100	> 100
COc1ccc(C2c3cc4c(cc3OC(Nc3ccccc3)C2C)OCO4)cc1 (stereo unspecified)	> 100	> 100	> 100	> 100	> 100	> 100	> 100	> 100	> 100	> 100	> 100
N#C/C(C(=O)NCc1ccccc1)=C(/N)N1CCCC1	> 100	> 100	> 100	> 100	> 100	> 100	> 100	> 100	> 100	> 100	> 100
Cc1cccc2c1CC(Cc1ccccc1C(=O)O)C2=O (stereo unspecified)	> 100	> 100	> 100	> 100	> 100	> 100	> 100	> 100	> 100	> 100	> 100
O=c1c2cc([N+](=O)[O-])ccc2oc2nc3n(c(=O)c12)CCCS3	> 100	> 100	> 100	> 100	> 100	> 100	> 100	> 100	> 100	> 100	> 100
CC(=O)Oc1ccn2nc(C)c(Br)c2c1	> 100	> 100	> 100	> 100	> 100	> 100	> 100	> 100	> 100	> 61.8	> 100
CNC(=S)N1CCN(C(C)=O)C1=S	> 100	> 100	> 100	90.7	52.8	> 100	> 100	> 100	> 100	> 100	> 100
CC1=NN2C(=N)/C(=C/c3ccc(F)cc3)C(=O)N=C2S1	> 100	> 100	> 100	> 100	> 100	> 100	> 100	> 100	> 100	> 100	> 100
